Measured values from PubChem BioAssay AID1918941 (Molecular Pharmacology Branch, DTP, NCI, 2023).

Test system: SW 1271 complex spheroids, viability
Assay: Anticancer human tumor SW 1271 cell line growth inhibition [LSD1];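 note: spheroids exposed to agents for 7 days before luminescence read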;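 for viability, T/C: 100% = DMSO vehicle control viability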
Settings: for IC50: curve of first compound; for viability, T/C: stronger effect = lower value
In short: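 Multicellular complex spheroids of tumor cells with human endothelial cells (HUVEC) and mesenchymal stem cells; the LSD1 inhibitor iadademstat was combined with standard-of-care or investigational agents. Top concentration at or near clinical Cmax, half-log dilutions; final DMSO ≤0.25%.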

[1] = second compound 0.1 µM, first compound 0.0316 µM
[2] = second compound 0.1 µM, first compound 0.1 µM
[3] = second compound 0.1 µM, first compound 0.316 µM
[4] = second compound 0.1 µM, first compound 1 µM
[5] = second compound 0.1 µM, first compound 3.16 µM
[6] = second compound 0.1 µM, first compound 10 µM
[7] = second compound 0.316 µM, first compound 0.0316 µM
[8] = second compound 0.316 µM, first compound 0.1 µM
[9] = second compound 0.316 µM, first compound 0.316 µM
[10] = second compound 0.316 µM, first compound 1 µM
[11] = second compound 0.316 µM, first compound 3.16 µM
[12] = second compound 0.316 µM, first compound 10 µM
[13] = second compound 1 µM, first compound 0.0316 µM
[14] = second compound 1 µM, first compound 0.1 µM
[15] = second compound 1 µM, first compound 0.316 µM
[16] = second compound 1 µM, first compound 1 µM
[17] = second compound 1 µM, first compound 3.16 µM
[18] = second compound 1 µM, first compound 10 µM
[19] = second compound 3.16 µM, first compound 0.0316 µM
[20] = second compound 3.16 µM, first compound 0.1 µM
[21] = second compound 3.16 µM, first compound 0.316 µM
[22] = second compound 3.16 µM, first compound 1 µM
[23] = second compound 3.16 µM, first compound 3.16 µM
[24] = second compound 3.16 µM, first compound 10 µM
[25] = second compound 10 µM, first compound 0.0316 µM
[26] = second compound 10 µM, first compound 0.1 µM
[27] = second compound 10 µM, first compound 0.316 µM
[28] = second compound 10 µM, first compound 1 µM
[29] = second compound 10 µM, first compound 3.16 µM
[30] = second compound 10 µM, first compound 10 µM
[31] = second compound 0.1 µM, first compound 0.00949 µM
[32] = second compound 0.1 µM, first compound 0.03 µM
[33] = second compound 0.1 µM, first compound 0.0949 µM
[34] = second compound 0.1 µM, first compound 0.3 µM
[35] = second compound 0.316 µM, first compound 0.00949 µM
[36] = second compound 0.316 µM, first compound 0.03 µM
[37] = second compound 0.316 µM, first compound 0.0949 µM
[38] = second compound 0.316 µM, first compound 0.3 µM
[39] = second compound 1 µM, first compound 0.00949 µM
[40] = second compound 1 µM, first compound 0.03 µM
[41] = second compound 1 µM, first compound 0.0949 µM
[42] = second compound 1 µM, first compound 0.3 µM
[43] = second compound 3.16 µM, first compound 0.00949 µM
[44] = second compound 3.16 µM, first compound 0.03 µM
[45] = second compound 3.16 µM, first compound 0.0949 µM
[46] = second compound 3.16 µM, first compound 0.3 µM
[47] = second compound 10 µM, first compound 0.00949 µM
[48] = second compound 10 µM, first compound 0.03 µM
[49] = second compound 10 µM, first compound 0.0949 µM
[50] = second compound 10 µM, first compound 0.3 µM

CC1(C)CCC(CN2CCN(c3ccc(C(=O)NS(=O)(=O)c4ccc(NCC5CCOCC5)c([N+](=O)[O-])c4)c(Oc4cnc5[nH]ccc5c4)c3)CC2)=C(c2ccc(Cl)cc2)C1 + NC1CC1c1ccc(-c2cccc(O)c2)cc1
IC50 (second compound 0.1 µM): 2550 nM | IC50 (second compound 0.316 µM): 2970 nM | IC50 (second compound 1 µM): 2490 nM | IC50 (second compound 3.16 µM): 1910 nM | IC50 (second compound 10 µM): 2100 nM | viability, T/C [1]: 80.6% | viability, T/C [2]: 84.3% | viability, T/C [3]: 91.6% | viability, T/C [4]: 78.3% | viability, T/C [5]: 43.4% | viability, T/C [6]: 1.33% | viability, T/C [7]: 85.8% | viability, T/C [8]: 95% | viability, T/C [9]: 91.8% | viability, T/C [10]: 85.5% | viability, T/C [11]: 47.9% | viability, T/C [12]: 1.12% | viability, T/C [13]: 91.3% | viability, T/C [14]: 78.7% | viability, T/C [15]: 82.4% | viability, T/C [16]: 80.8% | viability, T/C [17]: 42% | viability, T/C [18]: 1.39% | viability, T/C [19]: 78.4% | viability, T/C [20]: 81.7% | viability, T/C [21]: 79% | viability, T/C [22]: 66.6% | viability, T/C [23]: 36.7% | viability, T/C [24]: 1.44% | viability, T/C [25]: 73.3% | viability, T/C [26]: 65.6% | viability, T/C [27]: 64.1% | viability, T/C [28]: 69.8% | viability, T/C [29]: 40% | viability, T/C [30]: 0.32%

CC1COCCN1c1cc(C2(S(C)(=N)=O)CC2)nc(-c2ccnc3[nH]ccc23)n1 (stereo not given) + NC1CC1c1ccc(-c2cccc(O)c2)cc1
IC50 (second compound 0.1 µM): 1870 nM | IC50 (second compound 0.316 µM): 2600 nM | IC50 (second compound 1 µM): > 10000 nM | IC50 (second compound 3.16 µM): 1360 nM | IC50 (second compound 10 µM): 954 nM | viability, T/C [1]: 84.8% | viability, T/C [2]: 79.5% | viability, T/C [3]: 65.5% | viability, T/C [4]: 49% | viability, T/C [5]: 53.7% | viability, T/C [6]: 45.6% | viability, T/C [7]: 81.3% | viability, T/C [8]: 82.1% | viability, T/C [9]: 65% | viability, T/C [10]: 57.1% | viability, T/C [11]: 46% | viability, T/C [12]: 49.4% | viability, T/C [13]: 75% | viability, T/C [14]: 95.2% | viability, T/C [15]: 70.1% | viability, T/C [16]: 56.7% | viability, T/C [17]: 51.6% | viability, T/C [18]: 47.1% | viability, T/C [19]: 70.2% | viability, T/C [20]: 69.9% | viability, T/C [21]: 72.6% | viability, T/C [22]: 51.7% | viability, T/C [23]: 46.7% | viability, T/C [24]: 43.8% | viability, T/C [25]: 48.1% | viability, T/C [26]: 61.1% | viability, T/C [27]: 59.2% | viability, T/C [28]: 49.7% | viability, T/C [29]: 42% | viability, T/C [30]: 46.2%

CCN(c1cc(-c2ccc(CN3CCOCC3)cc2)cc(C(=O)NCc2c(C)cc(C)[nH]c2=O)c1C)C1CCOCC1 + NC1CC1c1ccc(-c2cccc(O)c2)cc1
IC50 (second compound 0.1 µM): > 3000 nM | IC50 (second compound 0.316 µM): > 3000 nM | IC50 (second compound 1 µM): > 3000 nM | IC50 (second compound 3.16 µM): > 3000 nM | IC50 (second compound 10 µM): > 3000 nM | viability, T/C [31]: 83.2% | viability, T/C [32]: 82.9% | viability, T/C [33]: 86% | viability, T/C [34]: 72.4% | viability, T/C (second compound 0.1 µM, first compound 0.949 µM): 68.2% | viability, T/C (second compound 0.1 µM, first compound 3 µM): 60% | viability, T/C [35]: 83.9% | viability, T/C [36]: 82.2% | viability, T/C [37]: 74.6% | viability, T/C [38]: 72.4% | viability, T/C (second compound 0.316 µM, first compound 0.949 µM): 71.3% | viability, T/C (second compound 0.316 µM, first compound 3 µM): 57.3% | viability, T/C [39]: 82.1% | viability, T/C [40]: 78.4% | viability, T/C [41]: 83.8% | viability, T/C [42]: 64.8% | viability, T/C (second compound 1 µM, first compound 0.949 µM): 59.4% | viability, T/C (second compound 1 µM, first compound 3 µM): 56.3% | viability, T/C [43]: 80.6% | viability, T/C [44]: 85.1% | viability, T/C [45]: 78.1% | viability, T/C [46]: 65.7% | viability, T/C (second compound 3.16 µM, first compound 0.949 µM): 63.7% | viability, T/C (second compound 3.16 µM, first compound 3 µM): 56.2% | viability, T/C [47]: 66.9% | viability, T/C [48]: 66.8% | viability, T/C [49]: 64.8% | viability, T/C [50]: 51.8% | viability, T/C (second compound 10 µM, first compound 0.949 µM): 58.7% | viability, T/C (second compound 10 µM, first compound 3 µM): 58.2%

Cn1ncnc1C1c2n[nH]c(=O)c3cc(F)cc(c23)NC1c1ccc(F)cc1 (stereo not given) + NC1CC1c1ccc(-c2cccc(O)c2)cc1
IC50 (second compound 0.1 µM): > 100 nM | IC50 (second compound 0.316 µM): > 100 nM | IC50 (second compound 1 µM): > 100 nM | IC50 (second compound 3.16 µM): > 100 nM | IC50 (second compound 10 µM): 65.5 nM | viability, T/C (second compound 0.1 µM, first compound 0.000316 µM): 97.8% | viability, T/C (second compound 0.1 µM, first compound 0.001 µM): 80.9% | viability, T/C (second compound 0.1 µM, first compound 0.00316 µM): 72.3% | viability, T/C (second compound 0.1 µM, first compound 0.01 µM): 85.8% | viability, T/C [1]: 71.3% | viability, T/C [2]: 66.7% | viability, T/C (second compound 0.316 µM, first compound 0.000316 µM): 77.6% | viability, T/C (second compound 0.316 µM, first compound 0.001 µM): 72.6% | viability, T/C (second compound 0.316 µM, first compound 0.00316 µM): 67.5% | viability, T/C (second compound 0.316 µM, first compound 0.01 µM): 68.9% | viability, T/C [7]: 71% | viability, T/C [8]: 77% | viability, T/C (second compound 1 µM, first compound 0.000316 µM): 78.1% | viability, T/C (second compound 1 µM, first compound 0.001 µM): 75.7% | viability, T/C (second compound 1 µM, first compound 0.00316 µM): 72.8% | viability, T/C (second compound 1 µM, first compound 0.01 µM): 67.5% | viability, T/C [13]: 66.1% | viability, T/C [14]: 82.7% | viability, T/C (second compound 3.16 µM, first compound 0.000316 µM): 75.8% | viability, T/C (second compound 3.16 µM, first compound 0.001 µM): 85.5% | viability, T/C (second compound 3.16 µM, first compound 0.00316 µM): 78.9% | viability, T/C (second compound 3.16 µM, first compound 0.01 µM): 57.3% | viability, T/C [19]: 59.2% | viability, T/C [20]: 57.9% | viability, T/C (second compound 10 µM, first compound 0.000316 µM): 64.7% | viability, T/C (second compound 10 µM, first compound 0.001 µM): 66.7% | viability, T/C (second compound 10 µM, first compound 0.00316 µM): 67.2% | viability, T/C (second compound 10 µM, first compound 0.01 µM): 61.3% | viability, T/C [25]: 48.6% | viability, T/C [26]: 49.7%

Nc1ncn(C2CC(O)C(CO)S2)c(=O)n1 (stereo not given) + NC1CC1c1ccc(-c2cccc(O)c2)cc1
IC50 (second compound 0.1 µM): > 300 nM | IC50 (second compound 0.316 µM): > 300 nM | IC50 (second compound 1 µM): > 300 nM | IC50 (second compound 3.16 µM): > 300 nM | IC50 (second compound 10 µM): > 300 nM | viability, T/C (second compound 0.1 µM, first compound 0.000949 µM): 90.1% | viability, T/C (second compound 0.1 µM, first compound 0.003 µM): 91.7% | viability, T/C [31]: 82% | viability, T/C [32]: 76.2% | viability, T/C [33]: 82% | viability, T/C [34]: 63% | viability, T/C (second compound 0.316 µM, first compound 0.000949 µM): 79.2% | viability, T/C (second compound 0.316 µM, first compound 0.003 µM): 83.6% | viability, T/C [35]: 86.3% | viability, T/C [36]: 67.9% | viability, T/C [37]: 53.5% | viability, T/C [38]: 57.8% | viability, T/C (second compound 1 µM, first compound 0.000949 µM): 85.3% | viability, T/C (second compound 1 µM, first compound 0.003 µM): 73.3% | viability, T/C [39]: 75.6% | viability, T/C [40]: 65.3% | viability, T/C [41]: 64.4% | viability, T/C [42]: 67.5% | viability, T/C (second compound 3.16 µM, first compound 0.000949 µM): 70.5% | viability, T/C (second compound 3.16 µM, first compound 0.003 µM): 79.4% | viability, T/C [43]: 79.1% | viability, T/C [44]: 62.3% | viability, T/C [45]: 60.8% | viability, T/C [46]: 58.8% | viability, T/C (second compound 10 µM, first compound 0.000949 µM): 66.4% | viability, T/C (second compound 10 µM, first compound 0.003 µM): 65.1% | viability, T/C [47]: 60.9% | viability, T/C [48]: 66.5% | viability, T/C [49]: 62.7% | viability, T/C [50]: 58.9%
